# Test results taken from US4229371A, “Ureylene naphthalene sulfonic acid intermediates” (American Cyanamid Company, priority 1978, dated 1980).
# Structures can show the parent of a compound that is named as a salt. Where two headings read alike, the source gives them in different places.
# Legend:
# [1] = in words; literature; cited from earlier work
# [2] = tested on: late components of human complement (C3-C9); assay: Test, Code 035 (C3-C9 inhibitor); format: cell-based; settings: higher well number indicates higher activity
# Description: (§1) An active inhibitor protects C2 from C1 and C4; (ii) Test, Code 035 (C3-C9 inhibitor)--This test determines the ability of the late components of human complement (C3-C9) to lyse EAC 142 in the presence of appropriate dilutions of the test compound. An active inhibitor protects EAC 142 from lysis by human C3-C9; (iii) Test, Code 036 (C-Shunt inhibitor)--In this test human erythrocytes rendered fragile are lysed in autologous serum via the shunt pathway activated by cobra venom factor in the presence of appropriate dilutions of the test compound. Inhibition of the shunt pathway results in failure of lysis; (iv) Forssman Vasculitis Test--Here, the well known complement dependent lesion, Forssman vasculitis, is produced in guinea pigs by intradermal injection of rabbit anti-Forssman antiserum. The lesion is measured in terms of diameter, edema and hemorrhage and the extent to which a combined index of these is inhibited by prior intraperitoneal injection of the test compound at 200 mg/kg is then reported, unless otherwise stated; (v) Forssman Shock Test--Lethan shock is produced in guinea pigs by an i.v. injection of anti-Forssman antiserum and the harmonic mean death time of treated guinea pigs is compared with that of simultaneous controls; (vi) Complement Level Reduction Test--In this test, the above dosed guinea pigs, or others, are bled for serum and the complement level is determined in undiluted serum by the capillary tube method of U.S. Pat. No. 3,876,376 and compared to undosed control guinea pigs; and (vii) Cap 50 Test--Here, appropriate amounts of the test compound are added to a pool of guinea pig serum in vitro, after which the undiluted serum capillary tube assay referred to above is run. The concentration of compound inhibiting 50% is reported.
# (§2) *Code designation for tests employed as referred herein.
# (§3) **Activity in wells a serial dilution assay. Higher well number indicates
# (§4) higher activity. The serial dilutions are twofold.
# activated human C1 = target: T1, activated human C1 (Homo sapiens, UniProt P09871); assay: Test, Code 026 (C1 inhibitor); format: biochemical; settings: higher well number indicates higher activity
# T1 construct: test of C2 destruction in presence of C4
# T1 sequence (P09871 16-688): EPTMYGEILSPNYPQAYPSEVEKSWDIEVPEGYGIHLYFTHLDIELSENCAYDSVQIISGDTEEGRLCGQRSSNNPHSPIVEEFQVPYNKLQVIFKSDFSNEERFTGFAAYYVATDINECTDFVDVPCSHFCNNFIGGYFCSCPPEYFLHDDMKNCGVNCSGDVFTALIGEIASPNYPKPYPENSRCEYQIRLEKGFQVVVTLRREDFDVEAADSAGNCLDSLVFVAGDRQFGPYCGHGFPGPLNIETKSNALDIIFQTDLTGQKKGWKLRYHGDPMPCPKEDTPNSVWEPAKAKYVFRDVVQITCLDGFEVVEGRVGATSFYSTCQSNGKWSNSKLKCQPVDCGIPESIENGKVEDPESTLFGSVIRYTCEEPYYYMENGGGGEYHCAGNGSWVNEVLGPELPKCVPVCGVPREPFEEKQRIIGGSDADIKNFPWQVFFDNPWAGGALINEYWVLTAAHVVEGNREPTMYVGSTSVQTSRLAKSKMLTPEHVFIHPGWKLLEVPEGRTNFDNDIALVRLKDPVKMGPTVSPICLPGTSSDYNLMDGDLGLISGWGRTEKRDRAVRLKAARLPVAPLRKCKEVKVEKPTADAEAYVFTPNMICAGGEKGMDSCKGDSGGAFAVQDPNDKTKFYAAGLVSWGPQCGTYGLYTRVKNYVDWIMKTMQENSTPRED
# T1 sequence (P00736 18-705 partner): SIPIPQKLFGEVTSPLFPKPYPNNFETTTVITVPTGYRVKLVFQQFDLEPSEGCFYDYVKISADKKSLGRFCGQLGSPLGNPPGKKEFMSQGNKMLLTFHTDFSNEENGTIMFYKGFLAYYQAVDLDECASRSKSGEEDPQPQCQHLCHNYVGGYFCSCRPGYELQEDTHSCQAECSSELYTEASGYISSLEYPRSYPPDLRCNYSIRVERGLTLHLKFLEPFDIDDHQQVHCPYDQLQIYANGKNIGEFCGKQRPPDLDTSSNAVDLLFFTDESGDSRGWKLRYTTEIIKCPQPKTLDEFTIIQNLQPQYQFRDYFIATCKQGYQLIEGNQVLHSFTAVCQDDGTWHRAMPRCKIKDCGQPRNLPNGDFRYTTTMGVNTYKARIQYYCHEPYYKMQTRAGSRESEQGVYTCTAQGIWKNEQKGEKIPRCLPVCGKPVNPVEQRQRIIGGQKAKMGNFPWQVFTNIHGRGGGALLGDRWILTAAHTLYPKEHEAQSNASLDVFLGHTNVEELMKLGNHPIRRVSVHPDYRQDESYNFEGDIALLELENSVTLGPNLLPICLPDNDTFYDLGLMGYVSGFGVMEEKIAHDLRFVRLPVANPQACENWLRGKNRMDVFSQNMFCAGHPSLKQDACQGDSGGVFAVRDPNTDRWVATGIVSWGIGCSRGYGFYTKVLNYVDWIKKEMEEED
# T1 sequence (P02745 23-245 partner): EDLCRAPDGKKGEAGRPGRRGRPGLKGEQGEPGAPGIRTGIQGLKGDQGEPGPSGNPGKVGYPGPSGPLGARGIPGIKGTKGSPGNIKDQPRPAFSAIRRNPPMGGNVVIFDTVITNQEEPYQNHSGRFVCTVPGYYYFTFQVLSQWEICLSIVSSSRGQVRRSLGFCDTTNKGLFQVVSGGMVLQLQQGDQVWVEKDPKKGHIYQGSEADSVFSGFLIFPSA
# T1 sequence (P02746 28-253 partner): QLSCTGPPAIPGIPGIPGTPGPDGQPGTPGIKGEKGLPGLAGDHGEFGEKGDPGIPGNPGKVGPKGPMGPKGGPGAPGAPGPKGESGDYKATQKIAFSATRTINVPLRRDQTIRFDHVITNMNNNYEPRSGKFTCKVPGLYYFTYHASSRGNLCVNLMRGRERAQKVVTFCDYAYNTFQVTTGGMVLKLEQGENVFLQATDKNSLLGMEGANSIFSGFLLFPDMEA
# T1 sequence (P02747 29-245 partner): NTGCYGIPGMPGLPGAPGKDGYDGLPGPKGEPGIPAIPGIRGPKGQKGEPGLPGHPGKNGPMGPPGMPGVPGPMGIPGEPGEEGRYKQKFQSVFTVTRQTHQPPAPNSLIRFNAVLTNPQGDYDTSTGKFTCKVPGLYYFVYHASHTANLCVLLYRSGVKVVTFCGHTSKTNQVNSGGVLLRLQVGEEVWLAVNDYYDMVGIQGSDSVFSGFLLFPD
# Description: as §1, §2, §3, §4
# whole complement = assay: In vivo activity, complement level reduction in serum of dosed guinea pigs (capillary tube assay); design: species or system guinea pig
# [3] = tested on: shunt pathway activated by cobra venom factor; assay: Test, Code 036 (C-Shunt inhibitor); format: cell-based, human; settings: higher well number indicates higher activity
# Description: as §1, §2, §3, §4
# [4] = tested on: total hemolytic complement activity; settings: human serum; in words; cited from earlier work
# [5] = tested on: total hemolytic complement activity; settings: human serum, in vitro; in words; cited from earlier work
# complement system = settings: in words; literature; cited from earlier work
# [6] = Table II (intermediates), twofold serial dilution
# [7] = Table II, intraperitoneal, time 30 min.
# [8] = Table II, intraperitoneal, time 60 min.
# [9] = Table II, intraperitoneal, time 120 min.
# [10] = Table II, intravenous, time 2 min.
# [11] = Table II, intravenous, time 30 min.
# [12] = Table II, intravenous, time 120 min.
# [13] = Table I, activity in wells, twofold serial dilution assay
compound,measurement,setting,value
NC[C@H]1CC[C@H](C(=O)O)CC1 [tranexamic acid],success in the treatment of hereditary angioneurotic edema,[1],used with success in the treatment of hereditary angioneurotic edema
"O=C(Nc1cc(S(=O)(=O)O)cc2cc(S(=O)(=O)O)cc(S(=O)(=O)O)c12)c1cc(NC(=O)c2ccc([N+](=O)[O-])cc2S(=O)(=O)O)cc(C(=O)Nc2cc(S(=O)(=O)O)cc3cc(S(=O)(=O)O)cc(S(=O)(=O)O)c23)c1 [8,8'-[5-(4-Nitro-2-sulfobenzamido)-1,3-phenylenedicarbonylimino]di-1,3,6-naphthalenetrisulfonic acid heptasodium salt]",C-Late 035 Wells,[2]; [6],+2 Wells
same,Cl 026 Wells,activated human C1; [6],+4 Wells
same,In Vivo Activity (Guinea Pig) % Inhibition,whole complement; [7],-40%
same,In Vivo Activity (Guinea Pig) % Inhibition,whole complement; [8],-55%
same,In Vivo Activity (Guinea Pig) % Inhibition,whole complement; [9],-74%
same,In Vivo Activity (Guinea Pig) % Inhibition,whole complement; [10],-91%
same,In Vivo Activity (Guinea Pig) % Inhibition,whole complement; [11],-59%
same,In Vivo Activity (Guinea Pig) % Inhibition,whole complement; [12],-51%
same,Shunt Inhibition 036 Wells,[3]; [6],+1 Wells
NCCCCCC(=O)O [epsilon-aminocaproic acid],success in the treatment of hereditary angioneurotic edema,[1],used with success in the treatment of hereditary angioneurotic edema
pentosanpoly-sulfoester,anticomplementary activity (reduction in total hemolytic complement activity),[4],anticomplementary activity on human serum both in vitro and in vivo
same,anticomplementary activity (reduction in total hemolytic complement activity),[5],anticomplementary activity on human serum both in vitro and in vivo
heparin,anticomplementary effect / complement inhibition,complement system,anticomplementary effect
"O=C(Nc1ccc(C(=O)Nc2cc(C(=O)Nc3cc(S(=O)(=O)O)cc4cc(S(=O)(=O)O)cc(S(=O)(=O)O)c34)cc(C(=O)Nc3cc(S(=O)(=O)O)cc4cc(S(=O)(=O)O)cc(S(=O)(=O)O)c34)c2)c(S(=O)(=O)O)c1)Nc1ccc(C(=O)Nc2cc(C(=O)Nc3cc(S(=O)(=O)O)cc4cc(S(=O)(=O)O)cc(S(=O)(=O)O)c34)cc(C(=O)Nc3cc(S(=O)(=O)O)cc4cc(S(=O)(=O)O)cc(S(=O)(=O)O)c34)c2)c(S(=O)(=O)O)c1 [8,8',8"",8'""Ureylenebis[(2-sulfo-4,1-phenylene)carbonylimino-s-phenenylbis(carbonylimino)]tetra-1,3,6-naphthalenetrisulfonic acid tetradecyl sodium salt]",C-Late 035 Wells,[2]; [13],+5 Wells
same,Cl 026 Wells,activated human C1; [13],+8 Wells
same,In Vivo Activity (Guinea Pig) % Inhibition,"whole complement; Table I, intravenous, 200 mg/kg, time 2 minutes",-97%
same,In Vivo Activity (Guinea Pig) % Inhibition,"whole complement; Table I, intravenous, 200 mg/kg, time 30 minutes",-96%
same,In Vivo Activity (Guinea Pig) % Inhibition,"whole complement; Table I, intravenous, 200 mg/kg, time printed 20 minutes",-95%
same,Shunt Inhibition 036 Wells,[3]; [13],+5 Wells
"Nc1ccc2cc(S(=O)(=O)O)cc(O)c2c1N=Nc1ccc(NC(=O)Nc2ccc(N=Nc3c(N)ccc4cc(S(=O)(=O)O)cc(O)c34)c(S(=O)(=O)O)c2)cc1S(=O)(=O)O [chlorazol fast pink, 3,3'-ureylenebis-[6-(2-amino-8-hydroxy-6-sulfo-1-naphthylazo)]benzenesulfonic acid, tetrasodium salt]",anticomplementary effect / complement inhibition,complement system,anticomplementary effect
"Nc1ccc(C(=O)Nc2cc(C(=O)Nc3cc(S(=O)(=O)O)cc4cc(S(=O)(=O)O)cc(S(=O)(=O)O)c34)cc(C(=O)Nc3cc(S(=O)(=O)O)cc4cc(S(=O)(=O)O)cc(S(=O)(=O)O)c34)c2)c(S(=O)(=O)O)c1 [8,8'-[5-(4-Amino-2-sulfobenzamido)-1,3-phenylenedicarbonylimino]di-1,3,6-naphthalenetrisulfonic acid heptasodium salt]",C-Late 035 Wells,[2]; [6],+3 Wells
same,Cl 026 Wells,activated human C1; [6],+6 Wells
same,In Vivo Activity (Guinea Pig) % Inhibition,whole complement; [7],-45%
same,In Vivo Activity (Guinea Pig) % Inhibition,whole complement; [8],-61%
same,In Vivo Activity (Guinea Pig) % Inhibition,whole complement; [9],-73%
same,In Vivo Activity (Guinea Pig) % Inhibition,whole complement; [10],-98%
same,In Vivo Activity (Guinea Pig) % Inhibition,whole complement; [11],-79%
same,In Vivo Activity (Guinea Pig) % Inhibition,whole complement; [12],-45%
same,Shunt Inhibition 036 Wells,[3]; [6],+2 Wells
Cc1ccc(C(=O)Nc2ccc(S(=O)(=O)O)c3cc(S(=O)(=O)O)cc(S(=O)(=O)O)c23)cc1NC(=O)c1cccc(NC(=O)Nc2cccc(C(=O)Nc3cc(C(=O)Nc4ccc(S(=O)(=O)O)c5cc(S(=O)(=O)O)cc(S(=O)(=O)O)c45)ccc3C)c2)c1 [Suramin],anticomplementary effect / complement inhibition,complement system,competitive inhibitor of the complement system
